# Assay results as given in patent publication US10226464B2, “Small molecule NF-κB inhibitors” (ImmuneTarget, Inc., priority 2015, dated 2019).
# Tests used:
# [1] = test system: NF-κB; assay: NF-κB GFP Assay (NFκB/Jurkat/GFP transcriptional reporter cell line); assay type: cell-based; settings: Homo sapiens; NF-κB/Jurkat/GFP reporter cells, TNF-α 5 ng/ml, 24 hours; read-out: NF-KB GFP IC50
# Description: NFκB/Jurkat/GFP transcriptional reporter cell line was obtained from SBI System Biosciences. NF-κB/Jurkat/GFP™ Reporter cells (5×10^5 cells) were plated at a concentration of 1 million cells/ml into each well of a 24-well plate. TNF-α (5 ng/ml) was added. Compounds were added via serial dilutions to corresponding wells. After 24 hours, 100 μl of the cells were transferred to a well of a Costar® UV plate (96 well, No lid, w/ UV Transparent Flat Bottom, Corning, N.Y., Cat#3635) and the intensity of GFP fluorescence was measured (Excitation 485+/−20, Emission 528+/−20) in a Synergy™ HT Multi-Detection Microplate Reader (BioTech, Winooski, Vt.). The intensities of GFP measured were plotted against the […].
# [2] = biological target: c-Rel protein (Homo sapiens (Human), UniProt Q04864); assay: Electrophoretic Mobility Shift Assay (EMSA), Rel/NF-κB DNA binding inhibition; settings: 10 nM c-Rel protein, phosphor-labeled CD28RE oligonucleotide
# Description: Electrophoretic Mobility Shift Assay (EMSA)
# DNA binding reaction (20 μL) was carried out in 1×DNA Binding Buffer (10 mM Tris, 40 mM NaCl, 1 mM EDTA, 4% glycerol) with 10 nM c-Rel protein and 0.5 ng phosphor-labeled CD28RE oligonucleotide for 10 minutes at room temperature in 96-well plates. Test compounds, in serial dilutions, were added into each well, and further incubated for 15 minutes before loading onto native 5% polyacrylamide gel. Electrophoresis proceeded for 2.5 hours at 160V. Radioactive signals were quantified using Phospho-Imager. IC50 of compounds of example 1 to 75 were determined by quantifying the intensity of Rel/NF-κB inhibition in EMSA using phospho-imager. An example of EMSA data of the present invention is shown for compound 6 in FIG. 2.
# Sequence of c-Rel protein (Q04864 whole entry): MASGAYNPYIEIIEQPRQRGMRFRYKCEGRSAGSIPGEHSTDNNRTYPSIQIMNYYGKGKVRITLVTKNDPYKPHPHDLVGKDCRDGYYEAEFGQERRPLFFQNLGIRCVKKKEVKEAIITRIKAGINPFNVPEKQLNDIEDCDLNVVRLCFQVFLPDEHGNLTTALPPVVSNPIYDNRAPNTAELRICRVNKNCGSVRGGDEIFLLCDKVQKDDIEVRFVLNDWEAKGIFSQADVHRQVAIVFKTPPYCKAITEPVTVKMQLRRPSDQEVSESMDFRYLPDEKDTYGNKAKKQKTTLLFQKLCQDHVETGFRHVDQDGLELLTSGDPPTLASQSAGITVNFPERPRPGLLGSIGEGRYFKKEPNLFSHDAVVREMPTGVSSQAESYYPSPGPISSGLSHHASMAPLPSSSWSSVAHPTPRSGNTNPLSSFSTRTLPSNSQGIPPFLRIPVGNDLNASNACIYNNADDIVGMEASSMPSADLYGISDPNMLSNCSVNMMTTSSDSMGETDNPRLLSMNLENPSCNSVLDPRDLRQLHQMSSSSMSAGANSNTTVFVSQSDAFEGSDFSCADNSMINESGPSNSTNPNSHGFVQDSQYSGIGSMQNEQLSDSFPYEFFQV
SMILES,IC50 [1],IC50 [2]
CCCCCCCOc1ccc2cc3c(=O)[nH]c(=O)nc-3oc2c1F [Compound 52],< 5 µM,< 500 nM
"O=C(O)CCCCCOc1ccc2cc3c(=O)[nH]c(=O)nc-3oc2c1Cl [Compound 53, 6-((9-chloro-2,4-dioxo-3,4-dihydro-2H-chromeno[2,3-d]pyrimidin-8-yl)oxy)hexanoic acid]",< 20 µM,< 5000 nM
O=C(O)CCCOc1ccc2cc3c(=O)[nH]c(=O)nc-3oc2c1Cl [Compound 55],< 20 µM,< 5000 nM
O=C(O)COc1ccc2cc3c(=O)[nH]c(=O)nc-3oc2c1Cl [Compound 56],< 20 µM,< 5000 nM
COC(=O)CCCCOc1ccc2cc3c(=O)[nH]c(=O)nc-3oc2c1Cl [Compound 57],< 20 µM,< 5000 nM
CC(=O)OCCCCCCOc1ccc2cc3c(=O)[nH]c(=O)nc-3oc2c1Cl [Compound 58],< 20 µM,< 5000 nM
CC(=O)OCCCOc1ccc2cc3c(=O)[nH]c(=O)nc-3oc2c1Cl [Compound 59],< 20 µM,< 5000 nM
"CC(=O)OCCCCOc1ccc2cc3c(=O)[nH]c(=O)nc-3oc2c1Cl [Compound 60, 4-((9-chloro-2,4-dioxo-3,4-dihydro-2H-chromeno[2,3-d]pyrimidin-8-yl)oxy)butyl acetate]",< 20 µM,< 5000 nM
"COCCOCCOc1ccc2cc3c(=O)[nH]c(=O)nc-3oc2c1 [Compound 61, 8-(2-(2-methoxyethoxy)ethoxy)-2H-chromeno[2,3-d]pyrimidine-2,4(3H)-dione]",< 5 µM,< 1000 nM
COCCOCCOc1ccc2cc3c(=O)[nH]c(=O)nc-3oc2c1Cl [Compound 62],< 5 µM,< 1000 nM
COCCOCCOc1ccc2cc3c(=O)[nH]c(=O)nc-3oc2c1F [Compound 63],< 5 µM,< 1000 nM
COCCOCCOc1cc2oc3nc(=O)[nH]c(=O)c-3cc2cc1Cl [Compound 64],< 5 µM,< 1000 nM
COCCOCCOc1cc2oc3nc(=O)[nH]c(=O)c-3cc2cc1F [Compound 65],< 5 µM,< 1000 nM
"COCCCCOc1ccc2cc3c(=O)[nH]c(=O)nc-3oc2c1Cl [Compound 66, 9-chloro-8-(4-methoxybutoxy)-2H-chromeno[2,3-d]pyrimidine-2,4(3H)-dione]",< 5 µM,< 1000 nM
COCCCCOc1ccc2cc3c(=O)[nH]c(=O)nc-3oc2c1 [Compound 67],< 5 µM,< 1000 nM
COCCCCOc1ccc2cc3c(=O)[nH]c(=O)nc-3oc2c1F [Compound 68],< 5 µM,< 1000 nM
COCCCCOc1cc2oc3nc(=O)[nH]c(=O)c-3cc2cc1Cl [Compound 69],< 5 µM,< 1000 nM
COCCCCOc1cc2oc3nc(=O)[nH]c(=O)c-3cc2cc1F [Compound 70],< 5 µM,< 1000 nM
COCCOCCCOc1ccc2cc3c(=O)[nH]c(=O)nc-3oc2c1 [Compound 71],< 5 µM,< 1000 nM
COCCOCCCOc1ccc2cc3c(=O)[nH]c(=O)nc-3oc2c1Cl [Compound 72],< 5 µM,< 1000 nM
COCCOCCCOc1ccc2cc3c(=O)[nH]c(=O)nc-3oc2c1F [Compound 73],< 5 µM,< 1000 nM
COCCOCCCOc1cc2oc3nc(=O)[nH]c(=O)c-3cc2cc1Cl [Compound 74],< 5 µM,< 1000 nM
"COCCOCCCOc1cc2oc3nc(=O)[nH]c(=O)c-3cc2cc1F [Compound 75, 7-fluoro-8-(3-(2-methoxyethoxy)propoxy)-2H-chromeno[2,3-d]pyrimidine-2,4(3H)-dione]",< 5 µM,< 1000 nM
